Experimental data as given in patent US8889423B2, “Method for analysis of compound-binding ability of protein” (Eisai R & D Management Co., Ltd., priority 2005, dated 2014).

Assays:
[1] = target: T1, AHCY (S-adenosylhomocysteine hydrolase) (Homo sapiens, UniProt P23526); assay: Affinity chromatography on immobilized compound with urea step elution, LC/MS peak intensity ratio; assay type: binding; conditions: for peak intensity ratio (peak area of the labeled protein/peak area of the non-labeled protein): HCT116 extract
T1 construct: Insoluble fractions were removed by centrifugation to prepare soluble fractions; endogenous in cells; host or cells: HCT116
T1 sequence (P23526 2-432 limits assumed): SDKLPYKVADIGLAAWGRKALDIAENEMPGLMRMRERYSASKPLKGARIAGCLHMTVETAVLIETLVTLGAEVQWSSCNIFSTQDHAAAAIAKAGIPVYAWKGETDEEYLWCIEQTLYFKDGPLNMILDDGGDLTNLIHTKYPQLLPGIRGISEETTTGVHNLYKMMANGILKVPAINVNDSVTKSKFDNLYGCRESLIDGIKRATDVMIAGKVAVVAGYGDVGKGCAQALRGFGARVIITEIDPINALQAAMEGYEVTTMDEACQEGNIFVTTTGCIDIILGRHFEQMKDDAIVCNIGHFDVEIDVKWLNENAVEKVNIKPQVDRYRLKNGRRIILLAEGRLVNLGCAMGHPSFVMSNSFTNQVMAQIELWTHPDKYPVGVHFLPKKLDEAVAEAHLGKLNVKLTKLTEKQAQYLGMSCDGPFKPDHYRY
Protocol: (§1) About 10 mg of the compound represented by formula (1):
(§2) [drawing 1] was dissolved in 4 mL of tetrahydrofuran (THF) and 4 mL of methanol (MeOH), and 4 mL of water was added thereto.
(§3) 6 mL of the resultant solution was diluted with 18 mL of THF/MeOH/Water=1/1/1 (v/v/v), and was added to 25 mL of Affi-gel 10 (produced by BioRad, Cat No. 153-6099), which had been washed with THF/MeOH/Water=1/1/1 (v/v/v) beforehand.
(§4) To the resultant substance, 100 μL of triethylamine (produced by Tokyo Chemical Industry Co., Ltd., Cat No. T0424) was added thereto and incubated at room temperature for 2 hours. Then, 500 μL of 2-aminoethanol (produced by Tokyo Chemical Industry Co., Ltd., Cat No. A0297) was added thereto and incubated at room temperature for 2 hours. The resultant gel was fully washed with THF/MeOH/Water=1/1/1 (v/v/v), and was stored at 4° C. after replacement with a methanol solution. The resultant gel was set to be used as an affinity gel. By this reaction, the compound represented by formula (1) was bound at a ratio of about 0.2 mg for 1 mL of gel. A column was filled with about 0.9 ml of the produced affinity gel. Thus, an affinity chromatography column was produced.
(§5) Human colon glandular cancer cell line HCT116 (ATCC) was cultured. Used as a medium was RPMI-1640 (Sigma, R-7130) containing 10% fetal calf serum (MOREGATE, BATCH 32300102), 100 U/ml of penicillin G; and 100 μg/ml of streptomycin (Invitrogen, 15140-122). As for the RPMI-1640 medium, a powder medium which contains none of L-glutamine, L-lysine, L-methionine, L-leucine, and sodium hydrogen carbonate was selected. Then, components absent in the medium were added. The absent components were added as follows. L-glutamine (produced by Sigma, G-8540), L-lysine (produced by Sigma, L-9037), L-methionine (produced by Sigma, M-5308), and sodium hydrogen carbonate (Wako Pure Chemical Industries, Ltd., 191-01305) were added in 0.3 g/L, 0.04 g/L, 0.015 g/L, and 2 g/L, respectively; and then naturally-occurring L-leucine and L-leucine labeled with a stable isotope ^13C (six) (Cambridge Isotope Laboratories, CLM-2262) were separately added in 0.05 g/L. Each medium thus prepared was used to culture cells in 5% CO2 at 37° C. The cells obtained by such culturing were used in the following tests as cells cultured in a naturally-occurring medium and cells cultured in a stable isotope medium, respectively.
(§6) Cells cultured in the naturally-occurring medium were provided in an amount corresponding to ten 15-cm diameter plates. Cells cultured in the stable isotope medium were provided in an amount corresponding to ten 15-cm diameter plates. The cells were collected. The cells were solubulized with about 2 ml of M-PER (PIERCE, 78501) per 15-cm diameter plate. Insoluble fractions were removed by centrifugation to prepare soluble fractions. The soluble fractions thus obtained were set to be used as a protein extract liquid metabolically labeled with a stable isotope and a protein extract liquid not metabolically labeled with a stable isotope, respectively. To these protein extract liquids (about 20 ml each), a quadruple amount of PBS was added (final amount: about 100 ml each).
(§7) Next, about 0.9 ml of affinity gel was put into an open column, and a diluted protein extract liquid metabolically labeled with a stable isotope was added to the open column from above and was naturally dropped. Then, 10 ml of PBS containing 1 M NaCl was flown to this column. Next, 7 ml of PBS containing 1 M urea and 0.01% CHAPS, 7 ml of PBS containing 2 M urea and 0.01% CHAPS, 7 ml of PBS containing 4 M urea and 0.01% CHAPS, and 7 ml of PBS containing 8 M urea and 0.01% CHAPS were sequentially flown, and the eluted fractions were collected (4 fractions in total).
(§8) In parallel with the above operation, a diluted protein extract liquid not metabolically labeled with a stable isotope was added to 0.9 ml of affinity gel from above and was naturally dropped. Then, 10 ml of PBS containing 1 M NaCl was flown to this column. […]

[2] = target: T2, MTAP (5′-methylthioadenosine phosphorylase) (Homo sapiens, UniProt Q13126); assay: as above; assay type: binding; conditions: for peak intensity ratio (peak area of the labeled protein/peak area of the non-labeled protein): HCT116 extract
T2 construct: Insoluble fractions were removed by centrifugation to prepare soluble fractions; endogenous in cells; host or cells: HCT116
T2 sequence (Q13126 1-283): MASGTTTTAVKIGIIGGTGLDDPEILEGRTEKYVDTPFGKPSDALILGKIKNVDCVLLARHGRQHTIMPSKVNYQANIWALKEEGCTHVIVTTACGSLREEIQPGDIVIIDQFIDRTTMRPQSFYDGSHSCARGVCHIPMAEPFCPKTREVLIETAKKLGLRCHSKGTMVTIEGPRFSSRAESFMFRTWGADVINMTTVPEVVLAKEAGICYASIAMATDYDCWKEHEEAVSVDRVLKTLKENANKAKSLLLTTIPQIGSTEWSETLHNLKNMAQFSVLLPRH
Protocol: as §1, §2, §3, §4, §5, §6, §7, §8

[3] = target: T3, PCMT1 (protein-L-isoaspartate (D-aspartate) O-methyltransferase) (Homo sapiens, UniProt P22061); assay: as above; assay type: binding; conditions: for peak intensity ratio (peak area of the labeled protein/peak area of the non-labeled protein): HCT116 extract
T3 construct: Insoluble fractions were removed by centrifugation to prepare soluble fractions; endogenous in cells; host or cells: HCT116
Protocol: as §1, §2, §3, §4, §5, §6, §7, §8

[4] = target: T4, SPRY4 (sprouty homolog 4) (Homo sapiens, UniProt Q9C004); assay: as above; assay type: binding; conditions: for peak intensity ratio (peak area of the labeled protein/peak area of the non-labeled protein): HCT116 extract
T4 construct: Insoluble fractions were removed by centrifugation to prepare soluble fractions; endogenous in cells; host or cells: HCT116
T4 sequence (Q9C004 1-299): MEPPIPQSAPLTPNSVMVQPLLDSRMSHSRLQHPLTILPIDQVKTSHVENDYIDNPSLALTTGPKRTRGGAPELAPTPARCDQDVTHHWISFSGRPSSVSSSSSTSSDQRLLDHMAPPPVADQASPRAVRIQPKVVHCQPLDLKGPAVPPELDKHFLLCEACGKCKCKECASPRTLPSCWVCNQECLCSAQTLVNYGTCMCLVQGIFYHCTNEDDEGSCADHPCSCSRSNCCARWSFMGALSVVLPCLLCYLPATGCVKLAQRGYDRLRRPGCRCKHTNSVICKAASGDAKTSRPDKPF
Protocol: as §1, §2, §3, §4, §5, §6, §7, §8

[5] = tested on: OS9 (amplified in osteosarcoma isoform 1-4 precursor); assay: as above; assay type: binding, Human; conditions: for peak intensity ratio (peak area of the labeled protein/peak area of the non-labeled protein): HCT116 extract
Protocol: as §1, §2, §3, §4, §5, §6
Next, about 0.9 ml of affinity gel was put into an open column, and a diluted protein extract liquid metabolically labeled with a stable isotope was added to the open column from above and was naturally dropped. Then, 10 ml of PBS containing 1 M NaCl was flown to this column. […]

[6] = tested on: proteins of HCT116 cell extract (AHCY, PCMT1, OS9, SPRY4); assay: Ranking of binding ability of proteins to the immobilized compound; set-up: species or system Human; conditions: from highest-peak fraction and from ratios in the 8 M urea fraction
Protocol: as §7
In parallel with the above operation, a diluted protein extract liquid not metabolically labeled with a stable isotope was added to 0.9 ml of affinity gel from above and was naturally dropped. Then, 10 ml of PBS containing 1 M NaCl was flown to this column. Next, 12 ml of PBS containing 8 M urea and 0.01% CHAPS was flown, and the eluted fractions were collected to be used as an internal standard fraction.
3 ml of the internal standard fraction was added to each of the four fractionated samples and mixed together. […]
Quantitation was to be performed at the peak of the peptides containing leucine. […] Peaks forming a pair were found, and the peak intensity ratio thereof was automatically calculated. In this manner, proteins were identified and the peak intensity ratio was calculated using the constructed software. […]

T3 sequence (P22061 whole entry): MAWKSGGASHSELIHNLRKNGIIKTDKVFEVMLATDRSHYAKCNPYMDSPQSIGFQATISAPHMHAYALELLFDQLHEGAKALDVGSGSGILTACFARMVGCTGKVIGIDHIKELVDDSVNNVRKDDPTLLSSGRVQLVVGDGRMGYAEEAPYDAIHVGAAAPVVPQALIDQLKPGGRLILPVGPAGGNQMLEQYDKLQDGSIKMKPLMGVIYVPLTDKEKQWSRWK

peak intensity ratio (peak area of the labeled protein/peak area of the non-labeled protein) ([1]; 1M Urea fraction): 0.63 | peak intensity ratio (peak area of the labeled protein/peak area of the non-labeled protein) ([1]; 2M Urea fraction): 0.99 | peak intensity ratio (peak area of the labeled protein/peak area of the non-labeled protein) ([1]; 4M Urea fraction): 1.88 | peak intensity ratio (peak area of the labeled protein/peak area of the non-labeled protein) ([1]; 8M Urea fraction): 3.27 | fraction with the highest peak ([1]; elution with 1, 2, 4, 8 M urea): 8 M urea fraction | peak intensity ratio (peak area of the labeled protein/peak area of the non-labeled protein) ([2]; 1M Urea fraction): 0.77 | peak intensity ratio (peak area of the labeled protein/peak area of the non-labeled protein) ([2]; 2M Urea fraction): 0.78 | peak intensity ratio (peak area of the labeled protein/peak area of the non-labeled protein) ([2]; 4M Urea fraction): 0.71 | peak intensity ratio (peak area of the labeled protein/peak area of the non-labeled protein) ([2]; 8M Urea fraction): 0.88 | peak intensity ratio ([2]; all the four urea fractions): about 0.8 | peak intensity ratio (peak area of the labeled protein/peak area of the non-labeled protein) ([3]; 1M Urea fraction): 1.14 | peak intensity ratio (peak area of the labeled protein/peak area of the non-labeled protein) ([3]; 2M Urea fraction): 1.57 | peak intensity ratio (peak area of the labeled protein/peak area of the non-labeled protein) ([3]; 4M Urea fraction): 2.52 | peak intensity ratio (peak area of the labeled protein/peak area of the non-labeled protein) ([3]; 8M Urea fraction): 1.02 | fraction with the highest peak ([3]; elution with 1, 2, 4, 8 M urea): 4 M urea fraction | peak intensity ratio (peak area of the labeled protein/peak area of the non-labeled protein) ([4]; 1M Urea fraction): 3.70 | peak intensity ratio (peak area of the labeled protein/peak area of the non-labeled protein) ([4]; 2M Urea fraction): 1.17 | peak intensity ratio (peak area of the labeled protein/peak area of the non-labeled protein) ([4]; 4M Urea fraction): 0.83 | peak intensity ratio (peak area of the labeled protein/peak area of the non-labeled protein) ([4]; 8M Urea fraction): 0.67 | fraction with the highest peak ([4]; elution with 1, 2, 4, 8 M urea): 1 M urea fraction
Structure (SMILES): NCc1ccc(S(=O)(=O)Nc2cccc3c(Cl)c[nH]c23)cc1 [formula (1)]
peak intensity ratio (peak area of the labeled protein/peak area of the non-labeled protein) ([5]; 1M Urea fraction): 1.24 | peak intensity ratio (peak area of the labeled protein/peak area of the non-labeled protein) ([5]; 2M Urea fraction): 3.57 | peak intensity ratio (peak area of the labeled protein/peak area of the non-labeled protein) ([5]; 4M Urea fraction): 1.62 | peak intensity ratio (peak area of the labeled protein/peak area of the non-labeled protein) ([5]; 8M Urea fraction): 0.73 | fraction with the highest peak ([5]; elution with 1, 2, 4, 8 M urea): 2 M urea fraction | binding ability of the proteins to the compound, ordered from highest to lowest [6]: AHCY, PCMT1, OS9 and SPRY4
